“Also recorded” adds a separate entry of the source.

One assay concerns WS1. As to the kind of experiment: DGAT assay (TLC). It is filed as biochemical, Marinobacter hydrocarbonoclasticus DSM 8798. The following applies: oleoyl-CoA as acyl donor, dipalmitoyl-glycerol as acyl acceptor. From the text: (§1) TLC plates were stained with either iodine vapor or anisaldehyde solution as described earlier (Jork et al., 1990. Thin-layer chromatography reagents and detection methods, vol. 1a. Physical and chemical detection methods: fundamentals, reagents. VHC, Weinheim, Germany). Palmitoyl palmitate and triolein were used as WE and TAG reference compounds, respectively.

In assay [1] the target is T1, WS2 (Marinobacter nauticus, UniProt A3RE51). As to the kind of experiment: DGAT assay (TLC). It is filed as biochemical, Marinobacter hydrocarbonoclasticus DSM 8798. The following applies: oleoyl-CoA as acyl donor, dipalmitoyl-glycerol as acyl acceptor.
T1 sequence (A3RE51 entry or part of it): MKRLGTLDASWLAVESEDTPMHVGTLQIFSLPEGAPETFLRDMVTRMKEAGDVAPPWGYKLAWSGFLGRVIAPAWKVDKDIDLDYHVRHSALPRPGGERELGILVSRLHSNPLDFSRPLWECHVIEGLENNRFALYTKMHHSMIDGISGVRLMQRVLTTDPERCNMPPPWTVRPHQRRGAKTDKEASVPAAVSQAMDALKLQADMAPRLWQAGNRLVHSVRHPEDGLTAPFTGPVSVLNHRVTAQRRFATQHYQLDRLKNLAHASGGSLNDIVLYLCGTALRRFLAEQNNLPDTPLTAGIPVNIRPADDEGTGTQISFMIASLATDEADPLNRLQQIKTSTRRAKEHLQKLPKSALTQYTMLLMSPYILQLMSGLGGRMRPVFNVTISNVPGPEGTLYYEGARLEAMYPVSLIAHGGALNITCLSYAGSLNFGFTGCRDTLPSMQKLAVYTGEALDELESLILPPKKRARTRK
Source text: as §1

The target in assay [2] is T1, WS2. As to the kind of experiment: WS2 kinetics on ethanol and oleoyl-CoA (DTNB). Format: biochemical, Marinobacter hydrocarbonoclasticus. The method, then: […] Assay reactions were pre-incubated at 37° C. for 5 minutes before the reactions were started by the addition of enzyme.

On to `CCCCCCCC/C=C\CCCCCCCC(=O)SCCNC(=O)CCNC(=O)[C@H](O)C(C)(C)COP(=O)(O)OP(=O)(O)OC[C@H]1O[C@@H](n2cnc3c(N)ncnc32)[C@H](O)[C@@H]1OP(=O)(O)O` [Oleoyl-CoA], for which, in the assay on WS1, the “DGAT activity of WS1 (TAG product on TLC)” value is reported as “TAG products were only detected for WS1; also recorded: Only WS1 shows DGAT activity”. Also, the “DGAT activity of WS2 (TAG product on TLC)” value at WS2 [1] is reported as “did not show DGAT activity”. Also, the “Kcat of WS2” value on WS2 [2] (steady state on ethanol and oleoyl-CoA) stood at 59 s⁻¹. Besides, on WS2 [2] (steady state, varied substrate 10 μM-250 μM, other substrate (oleoyl-CoA or ethanol) 500 μM), the “Vmax of WS2” value is recorded as 1667 μmol (mg/min)^−1.

The values above are taken from patent US7897369B2, “Isoprenoid wax ester synthases, isoprenoid acyl CoA-synthetases, and uses thereof” (Regents of the University of Minnesota, priority 2007, dated 2011).
